# Target: HSD17B13 enzyme (Homo sapiens (Human), UniProt Q7Z5P4)
# Assay: Estrone detection assay (LC/MS, conversion of estradiol to estrone) for HSD17B13 activity
# Assay type: biochemical
# Details: substrate 4 µM estradiol, 6 mM NAD+, 30 nM enzyme
# Procedure: The liquid chromatography/mass spectrometry (LC/MS) estrone detection assay monitors the conversion of estradiol to estrone by HSD17B13. This assay was undertaken in a 96wp format (Eppendorf deep well Plate 96/500) in an 80 µl reaction volume containing: 4 µM of Estradiol (E2; Cayman; #10006315), 6 mM NAD^+ (Sigma; #N0623) and 30 nM HSD17B13 enzyme (in-house; E. coli expressed His-tagged, purified, soluble protein) in a reaction containing 1 M potassium phosphate buffer pH 7.4, with 0.5% vehicle (DMSO). Reactions were incubated for 2 hours at 26.5° C., and estradiol (E2) conversion to estrone (E1) was quantitated by LC-MS/MS based analyte detection for both E2 and E1 using LCMS grade reagents.
# Reactions were terminated by the addition of two volumes of acetonitrile (MeCN; LCMS grade; CAS# 75/05/8) containing deuterated (D4)-E1 used as internal standard (Clear Synth; #CS-T-54273; 500 ng/mL final concentration). Samples were applied to pre-prepared Bond Elut-C18 extraction cartridges (3 mL; Agilent; #12102028), washed and eluted in MeCN. Eluates were dried under nitrogen and re-suspended in 60% methanol (LCMS grade methanol; CAS# 67/56/1) before submission for analysis. Aqueous linearity for E2 and E1 were included for quantification.
# Analysis of samples was undertaken on a XBridge BEH C18 column (Waters; #186003033) using 0.1% Diethyl Amine in MeCN (mobile phase A; DEA CAS# 109-89-7) and 0.1% Diethyl Amine in milli-Q water (mobile phase B) in a 3 min gradient allowing 25%B. Analytes were detected in negative mode using MRM analysis, with E2 having a RT of 1.85 min and E1 having a RT of 2 min. Activity of the enzyme, in the absence of NAD^+, was used to evaluate specificity of conversion. Enzyme activity in the presence of test samples was expressed as a percentage of the uninhibited enzyme activity, and plotted versus inhibitor concentration. Non-linear regression was performed using a four-parameter logistic model and GraphPad Prism software (GraphPad Software, La Jolla, CA). All assessments were undertaken in duplicate evaluations and pooled during extraction process and subsequently injected as duplicates for LC-MS/MS analysis.
# HSD17B13 enzyme, sequence (Q7Z5P4 20-300): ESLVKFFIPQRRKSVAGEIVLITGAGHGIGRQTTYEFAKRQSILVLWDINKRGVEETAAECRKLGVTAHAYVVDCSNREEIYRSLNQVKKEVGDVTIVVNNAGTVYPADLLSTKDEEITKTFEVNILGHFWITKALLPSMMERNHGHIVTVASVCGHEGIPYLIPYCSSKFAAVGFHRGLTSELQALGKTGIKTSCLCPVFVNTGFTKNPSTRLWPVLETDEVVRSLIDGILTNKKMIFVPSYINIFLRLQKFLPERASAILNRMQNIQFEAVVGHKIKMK
row,SMILES,IC50 [nM]
1,"CC(C)(C)CCn1cnc2cccc(NC(=O)c3cnc(O)c(Cl)c3)c2c1=O [Example 12, 5-chloro-N-(3-(3,3-dimethylbutyl)-4-oxo-3,4-dihydroquinazolin-5-yl)-6-hydroxynicotinamide]",1000 to 10000
2,"CC(C)(C)CCn1cnc2cccc(NC(=O)c3ccc(-c4nnn[nH]4)c(Cl)c3)c2c1=O [Example 13, 3-chloro-N-(3-(3,3-dimethylbutyl)-4-oxo-3,4-dihydroquinazolin-5-yl)-4-(1H-tetrazol-5-yl)benzamide]",1000 to 10000
3,"O=C(Nc1cccc2ncn(Cc3nncs3)c(=O)c12)c1cc(Cl)c(O)c(C(F)(F)F)c1 [Example 36, N-(3-((1,3,4-thiadiazol-2-yl)methyl)-4-oxo-3,4-dihydroquinazolin-5-yl)-3-chloro-4-hydroxy-5-(trifluoromethyl)benzamide]",1000 to 10000
4,O=C(Nc1cccc2ncn(Cc3cocn3)c(=O)c12)c1cc(Cl)c(O)c(C(F)(F)F)c1 [Example 42],1000 to 10000
5,"N#Cc1cc(C(=O)Nc2cccc3ncn(Cc4cccc(OC(F)(F)F)c4)c(=O)c23)cc(Cl)c1O [Example 48, 3-chloro-5-cyano-4-hydroxy-N-(4-oxo-3-(3-(trifluoromethoxy)benzyl)-3,4-dihydroquinazolin-5-yl)benzamide]",100 to 1000
6,"N#Cc1cc(C(=O)Nc2cccc3ncn(Cc4cccc(F)c4)c(=O)c23)cc(Cl)c1O [Example 49, 3-chloro-5-cyano-N-(3-(3-fluorobenzyl)-4-oxo-3,4-dihydroquinazolin-5-yl)-4-hydroxybenzamide]",100 to 1000
7,"O=C(Nc1cccc2ncn(Cc3ccccc3OC(F)(F)F)c(=O)c12)c1cc(Cl)c(O)c(C(F)(F)F)n1 [Example 50, 4-chloro-5-hydroxy-N-(4-oxo-3-(2-(trifluoromethoxy)benzyl)-3,4-dihydroquinazolin-5-yl)-6-(trifluoromethyl)picolinamide]",100 to 1000
8,"O=C(Nc1cccc2ncn(Cc3ccc(C(F)(F)F)cc3)c(=O)c12)c1cc(Cl)c(O)c(C(F)(F)F)n1 [Example 51, 4-chloro-5-hydroxy-N-(4-oxo-3-(4-(trifluoromethyl)benzyl)-3,4-dihydroquinazolin-5-yl)-6-(trifluoromethyl)picolinamide]",1000 to 10000
9,"N#Cc1cc(C(=O)Nc2cccc3ncn(Cc4ccc(OC(F)(F)F)cc4)c(=O)c23)cc(F)c1O [Example 53, 3-cyano-5-fluoro-4-hydroxy-N-(4-oxo-3-(4-(trifluoromethoxy)benzyl)-3,4-dihydroquinazolin-5-yl)benzamide]",100 to 1000
10,"NC(=O)c1cc(C(=O)Nc2cccc3ncn(Cc4cccc(C(F)(F)F)c4)c(=O)c23)cc(F)c1O [Example 54, 5-fluoro-4-hydroxy-N1-(4-oxo-3-(3-(trifluoromethyl)benzyl)-3,4-dihydroquinazolin-5-yl)isophthalamide]",1000 to 10000
11,"O=C(Nc1cccc2ncn(Cc3ccccc3C(F)(F)F)c(=O)c12)c1cc(Cl)c(O)c(C(F)(F)F)n1 [Example 55, 4-chloro-5-hydroxy-N-(4-oxo-3-(2-(trifluoromethyl)benzyl)-3,4-dihydroquinazolin-5-yl)-6-(trifluoromethyl)picolinamide]",100 to 1000
12,"N#Cc1cc(C(=O)Nc2cccc3ncn(Cc4cccc(OC(F)(F)F)c4)c(=O)c23)cc(F)c1O [Example 56, 3-cyano-5-fluoro-4-hydroxy-N-(4-oxo-3-(3-(trifluoromethoxy)benzyl)-3,4-dihydroquinazolin-5-yl)benzamide]",100 to 1000
13,"N#Cc1cc(C(=O)Nc2cccc3ncn(Cc4ccc(OC(F)(F)F)cc4)c(=O)c23)cc(Cl)c1O [Example 58, 3-chloro-5-cyano-4-hydroxy-N-(4-oxo-3-(4-(trifluoromethoxy)benzyl)-3,4-dihydroquinazolin-5-yl)benzamide]",100 to 1000
14,"N#Cc1cc(C(=O)Nc2cccc3ncn(Cc4cc[nH]n4)c(=O)c23)cc(F)c1O [Example 61, N-(3-((1H-pyrazol-3-yl)methyl)-4-oxo-3,4-dihydroquinazolin-5-yl)-3-cyano-5-fluoro-4-hydroxybenzamide]",100 to 1000
15,"CS(=O)(=O)c1ccccc1Cn1cnc2cccc(NC(=O)c3cc(F)c(O)c(C#N)c3)c2c1=O [Example 62, 3-cyano-5-fluoro-4-hydroxy-N-(3-(2-(methylsulfonyl)benzyl)-4-oxo-3,4-dihydroquinazolin-5-yl)benzamide]",100 to 1000

# More lines, now with the values ahead:
row,IC50 [nM],SMILES
1,100 to 1000,"O=C(Nc1cccc2ncn(Cc3ccc(F)cc3)c(=O)c12)c1cc(Cl)c(O)c(C(F)(F)F)c1 [Example 35, 3-chloro-N-(3-(4-fluorobenzyl)-4-oxo-3,4-dihydroquinazolin-5-yl)-4-hydroxy-5-(trifluoromethyl)benzamide]"
2,100 to 1000,"N#Cc1cc(C(=O)Nc2cccc3ncn(Cc4ccccc4F)c(=O)c23)cc(Cl)c1O [Example 37, 3-chloro-5-cyano-N-(3-(2-fluorobenzyl)-4-oxo-3,4-dihydroquinazolin-5-yl)-4-hydroxybenzamide]"
3,100 to 1000,"C[C@@H](c1cccc(F)c1)n1cnc2cccc(NC(=O)c3cc(Cl)c(O)c(C#N)c3)c2c1=O [Example 38, (S)-3-chloro-5-cyano-N-(3-(1-(3-fluorophenyl)ethyl)-4-oxo-3,4-dihydroquinazolin-5-yl)-4-hydroxybenzamide]"
4,100 to 1000,"O=C(Nc1cccc2ncn(Cc3ccccc3C(F)(F)F)c(=O)c12)c1cc(Cl)c(O)c(C(F)(F)F)c1 [Example 39, 3-chloro-4-hydroxy-N-(4-oxo-3-(2-(trifluoromethyl)benzyl)-3,4-dihydroquinazolin-5-yl)-5-(trifluoromethyl)benzamide]"
5,100 to 1000,"O=C(Nc1cccc2ncn(Cc3cccc(F)c3)c(=O)c12)c1cc(C(F)(F)F)c(O)c(C(F)(F)F)n1 [Example 40, N-(3-(3-fluorobenzyl)-4-oxo-3,4-dihydroquinazolin-5-yl)-5-hydroxy-4,6-bis(trifluoromethyl)picolinamide]"
6,100 to 1000,"O=C(Nc1cccc2ncn(Cc3ccccc3F)c(=O)c12)c1cc(Cl)c(O)c(C(F)(F)F)c1 [Example 41, 3-chloro-N-(3-(2-fluorobenzyl)-4-oxo-3,4-dihydroquinazolin-5-yl)-4-hydroxy-5-(trifluoromethyl)benzamide]"
7,100 to 1000,"C[C@@H](c1cccc(F)c1)n1cnc2cccc(NC(=O)c3cc(Cl)c(O)c(C(F)(F)F)n3)c2c1=O [Example 43, (S)-4-chloro-N-(3-(1-(3-fluorophenyl)ethyl)-4-oxo-3,4-dihydroquinazolin-5-yl)-5-hydroxy-6-(trifluoromethyl)picolinamide]"
8,≤ 100,"N#Cc1cc(C(=O)Nc2cccc3ncn(Cc4ccc(F)cc4)c(=O)c23)cc(F)c1O [Example 44, 3-cyano-5-fluoro-N-(3-(4-fluorobenzyl)-4-oxo-3,4-dihydroquinazolin-5-yl)-4-hydroxybenzamide]"
9,100 to 1000,"O=C(Nc1cccc2ncn(Cc3ccccc3F)c(=O)c12)c1cc(Cl)c(O)c(C(F)(F)F)n1 [Example 45, 4-chloro-N-(3-(2-fluorobenzyl)-4-oxo-3,4-dihydroquinazolin-5-yl)-5-hydroxy-6-(trifluoromethyl)picolinamide]"
10,100 to 1000,"O=C(Nc1cccc2ncn(Cc3ccc(C(F)(F)F)cc3)c(=O)c12)c1cc(Cl)c(O)c(C(F)(F)F)c1 [Example 46, 3-chloro-4-hydroxy-N-(4-oxo-3-(4-(trifluoromethyl)benzyl)-3,4-dihydroquinazolin-5-yl)-5-(trifluoromethyl)benzamide]"
11,≤ 100,"C[C@@H](c1cccc(F)c1)n1cnc2cccc(NC(=O)c3cc(F)c(O)c(C#N)c3)c2c1=O [Example 47, (S)-3-cyano-5-fluoro-N-(3-(1-(3-fluorophenyl)ethyl)-4-oxo-3,4-dihydroquinazolin-5-yl)-4-hydroxybenzamide]"
12,≤ 100,"N#Cc1cc(C(=O)Nc2cccc3ncn(Cc4ccccc4C(F)(F)F)c(=O)c23)cc(F)c1O [Example 52, 3-cyano-5-fluoro-4-hydroxy-N-(4-oxo-3-(2-(trifluoromethyl)benzyl)-3,4-dihydroquinazolin-5-yl)benzamide]"
13,≤ 100,"N#Cc1cc(C(=O)Nc2cccc3ncn(Cc4cccc(C(F)(F)F)c4)c(=O)c23)cc(F)c1O [Example 57, 3-cyano-5-fluoro-4-hydroxy-N-(4-oxo-3-(3-(trifluoromethyl)benzyl)-3,4-dihydroquinazolin-5-yl)benzamide]"
14,≤ 100,"N#Cc1cc(C(=O)Nc2cccc3ncn(Cc4ccc(C(F)(F)F)cc4)c(=O)c23)cc(F)c1O [Example 59, 3-cyano-5-fluoro-4-hydroxy-N-(4-oxo-3-(4-(trifluoromethyl)benzyl)-3,4-dihydroquinazolin-5-yl)benzamide]"
15,≤ 100,"N#Cc1ccccc1Cn1cnc2cccc(NC(=O)c3cc(F)c(O)c(C#N)c3)c2c1=O [Example 60, 3-cyano-N-{3-[(2-cyanophenyl)methyl]-4-oxo-3,4-dihydroquinazolin-5-yl}-5-fluoro-4-hydroxybenzamide]"

# — patent US20230286923A1 (INIPHARM, INC., priority 2020, published 2023)
